As usually defined, the IC50 is the concentration needed to halve the response being measured. As a reminder, the solubility is the dissolved amount per volume that the medium holds. A high value points to much dissolved substance.

Values after ≈ are worked out from the molar mass of the structure shown. Like-named read-outs stand apart in the source and are kept apart here.

Results on 17 compounds are retold here after patent publication US20240279233A1, “MACROCYCLIC TAK1 INHIBITORS” (Aqilion AB, priority 2021, published 2024).

Data set [1] has as its target human recombinant TAK1-TAB1 Kinase (TAK1 (1-303) and TAB1 (437-end)) (Homo sapiens (Human), UniProt O43318). The data set is described as follows: TAK1 biochemical ADP-Glo kinase assay. The note with it: MBP substrate. In a few lines: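 Inhibition of human recombinant TAK1-TAB1 kinase was measured with a Promega ADP-Glo luminescence assay in 384-well plates. Compounds in 5% DMSO were pre-incubated 10 min with 2 μl TAK1-TAB1 (7.5 ng/μl) in buffer of Tris pH 7.5, MgCl2, DTT and BSA. MBP substrate and ATP were then added for 1 hour at room temperature. ADP-Glo reagent and kinase detection substrate followed, luminescence was read on an Envision, and IC50 came from non-linear regression.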
A general note: ADP-Glo first removes unused ATP, then detects ADP through luciferase.

Data set [2] can be described thus: Solubility assay in phosphate buffer. As to conditions: phosphate buffer 100 mM, pH 7.4, room temperature, 20-24 h, LC-UV.
Description: The aqueous solubility of selected example compounds was determined as follows; 6 μL of DMSO stock solution of the selected example was added to 594 μL phosphate buffer (100 mM, pH 7.4). The resulting mixture was equilibrated over night (20-24 h, Alligator Shaker, room temperature). The mixture was then filtered (Millex LH 0.45 μm) and the concentration/solubility was determined by LC-UV quantification.
Setting [3] is: 10 μM ATP, read-out: TAK1 Mean IC50 (nM) @ 10 μM ATP.
[4] abbreviates: phosphate buffer, pH 7.4, aqueous buffer, kinetic from dmso stock, Solubility (μM).
[5] abbreviates: 1 mM ATP, read-out: TAK1 Mean IC50 (nM) @ 1 mM ATP.

human recombinant TAK1-TAB1 Kinase (TAK1 (1-303) and TAB1 (437-end)), sequence (O43318 other isoform, or with tags, fused parts or gaps): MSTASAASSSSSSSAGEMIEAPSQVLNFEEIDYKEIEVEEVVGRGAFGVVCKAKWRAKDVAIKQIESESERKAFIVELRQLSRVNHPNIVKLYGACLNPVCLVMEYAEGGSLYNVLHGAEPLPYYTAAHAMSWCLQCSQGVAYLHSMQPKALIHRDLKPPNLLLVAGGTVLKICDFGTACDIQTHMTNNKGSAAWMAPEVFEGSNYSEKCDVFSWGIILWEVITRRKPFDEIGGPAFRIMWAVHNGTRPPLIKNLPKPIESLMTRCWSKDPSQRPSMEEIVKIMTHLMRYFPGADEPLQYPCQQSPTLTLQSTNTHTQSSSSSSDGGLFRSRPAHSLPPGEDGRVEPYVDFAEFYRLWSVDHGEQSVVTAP

For `CN1CCCN(C(=O)c2cccc3c2N2CCCCCNC(=O)c4cccc(c4)C(=O)/N=C/2N3)CC1` [Example 26, (E)-1^7-(4-methyl-1,4-diazepane-1-carbonyl)-1^2,1^3-dihydro-1^1H-2,6-diaza-1(2,1)-benzo[d]imidazola-4(1,3)-benzenacycloundecaphane-3,5-dione], the IC50 in data set [1] (setting [3]) stood at 5 nM. This compound also displayed a solubility in data set [2] (setting [4]) of 78.7 µM (≈ 38.5 µg/mL).
Consider `C[C@@H]1CCCCNC(=O)c2cccc(c2)C(=O)/N=C2\Nc3cccc(C(=O)N4C[C@H]5C[C@@H]4CN5C)c3N21` [Example 29, (R, E)-11-methyl-1^7-((1R,4R)-5-methyl-2,5-diazabicyclo[2.2.1]heptane-2-carbonyl)-1^2,1^3-dihydro-1^1H-2,6-diaza-1(2,1)-benzo[d]imidazola-4(1,3)-benzenacycloundecaphane-3,5-dione], for which the IC50 in data set [1] (setting [3]) came to 6 nM. For the same compound, the solubility in data set [2] (setting [4]) was determined as 95 µM (≈ 47.6 µg/mL).
The matching figures for `C[C@H]1CCCCNC(=O)c2cccc(c2)C(=O)/N=C2\Nc3cccc(C(=O)N4C[C@H]5C[C@@H]4CN5C)c3N21` [Example 30, (S, E)-11-methyl-1^7-((1R,4R)-5-methyl-2,5-diazabicyclo[2.2.1]heptane-2-carbonyl)-1^2,1^3-dihydro-1^1H-2,6-diaza-1(2,1)-benzo[d]imidazola-4(1,3)-benzenacycloundecaphane-3,5-dione]: 8 nM and 95 µM (≈ 47.6 µg/mL).
With `CC1CCCCNC(=O)c2cccc(c2)C(=O)/N=C2\Nc3cccc(C(=O)N4CCC4)c3N21` (stereo not drawn) [Example 43, (E)-1^7-(azetidine-1-carbonyl)-11-methyl-1^2,1^3-dihydro-1^1H-2,6-diaza-1(2,1)-benzo[d]imidazola-4(1,3)-benzenacycloundecaphane-3,5-dione], the IC50 in data set [1] (setting [3]) worked out at 4 nM. Further, the solubility in data set [2] (setting [4]) was found to be 16 µM (≈ 7.13 µg/mL).
For `C[C@H]1CCCCn2c(nc3cccc(C(=O)N(C)C)c32)NC(=O)c2cccc(c2)C(=O)N1` [Example 44, (S,E)-N,N,7-trimethyl-3,5-dioxo-1^2,1^3-dihydro-1^1H-2,6-diaza-1(2,1)-benzo[d]imidazola-4(1,3)-benzenacycloundecaphane-1^7-carboxamide], the IC50 in data set [1] (setting [3]) was 223 nM. In data set [2] (setting [4]), the solubility stood at 26 µM (≈ 11.3 µg/mL).
As to `CC(=O)Nc1cccc2c1N1/C(=N/C(=O)c3cccc(c3)C(=O)NCCCCC1C)N2` (stereo not drawn) [Example 45, (E)-N-(11-methyl-3,5-dioxo-1^2,1^3-dihydro-1^1H-2,6-diaza-1(2,1)-benzo[d]imidazola-4(1,3)-benzenacycloundecaphane-1^7-yl)acetamide], the IC50 in data set [1] (setting [3]) turned out to be 4 nM. The solubility in data set [2] (setting [4]) amounted to 74 µM (≈ 31 µg/mL).
In the case of `CC(C)N(C)C(=O)c1cccc2c1N1/C(=N/C(=O)c3cccc(c3)C(=O)NCCCCC1C)N2` (stereo not drawn) [Example 47, (E)-N-isopropyl-N,11-dimethyl-3,5-dioxo-1^2,1^3-dihydro-1^1H-2,6-diaza-1(2,1)-benzo[d]imidazola-4(1,3)-benzenacycloundecaphane-1^7-carboxamide], the IC50 in data set [1] (setting [3]) is 1 nM. Further, in data set [2] (setting [4]), the solubility was determined as 42 µM (≈ 19.4 µg/mL).
As for `CC(C)N(C)C(=O)c1cccc2c1N1/C(=N/C(=O)c3cccc(c3)C(=O)NCCCCC1C)N2` (stereo not drawn) [Example 48, (E)-N-isopropyl-N,11-dimethyl-3,5-dioxo-1^2,1^3-dihydro-1^1H-2,6-diaza-1(2,1)-benzo[d]imidazola-4(1,3)-benzenacycloundecaphane-1^7-carboxamide], in data set [1] (setting [3]), the IC50 is 1 nM. Moreover, the “solubility” value in data set [2] was 24.0 µM (≈ 11.1 µg/mL).
Turning to `COC1(C)CN(C(=O)c2cccc3c2N2/C(=N/C(=O)c4cccc(c4)C(=O)NCCCCC2C)N3)C1` (stereo not drawn) [Example 49, (E)-1^7-(3-methoxy-3-methylazetidine-1-carbonyl)-11-methyl-1^2,1^3-dihydro-1^1H-2,6-diaza-1(2,1)-benzo[d]imidazola-4(1,3)-benzenacycloundecaphane-3,5-dione], the IC50 in data set [1] (setting [3]) came out at 3 nM. In addition, in data set [2] (setting [4]), the solubility worked out at 89 µM (≈ 43.6 µg/mL).
For the compound `COC1(C)CN(C(=O)c2cccc3c2N2/C(=N/C(=O)c4cccc(c4)C(=O)NCCCCC2C)N3)C1` (stereo not drawn) [Example 50, (E)-1^7-(3-methoxy-3-methylazetidine-1-carbonyl)-11-methyl-1^2,1^3-dihydro-1^1H-2,6-diaza-1(2,1)-benzo[d]imidazola-4(1,3)-benzenacycloundecaphane-3,5-dione], the IC50 in data set [1] (setting [3]) turned out to be 3 nM. Besides, in data set [2], the “solubility” value worked out at 80.0 µM (≈ 39.2 µg/mL).
Regarding `C[C@@H]1CCCCNC(=O)c2cccc(c2)C(=O)Nc2nc3ccc(Cl)c(C(=O)N(C)C)c3n21` [Example 55, (R,E)-1^6-chloro-N,N,11-trimethyl-3,5-dioxo-1^2,1^3-dihydro-1^1H-2,6-diaza-1(2,1)-benzo[d]imidazola-4(1,3)-benzenacycloundecaphane-1^7-carboxamide], the half-maximal inhibitory concentration (IC50) in data set [1] (setting [3]) stood at 6 nM. Further, the “solubility” value in data set [2] is 74.0 µM (≈ 34.6 µg/mL).
On to `C[C@@H]1CCCCNC(=O)c2cccc(c2)C(=O)Nc2nc3ccc(Cl)c(C(=O)N(C)C)c3n21` [Example 56, (R,E)-1^6-chloro-N,N,11-trimethyl-3,5-dioxo-1^2,1^3-dihydro-1^1H-2,6-diaza-1(2,1)-benzo[d]imidazola-4(1,3)-benzenacycloundecaphane-1^7-carboxamide], for which, in data set [1] (setting [3]), the IC50 was determined as 16 nM. Further, in data set [2], the “solubility” value was 7.1 µM (≈ 3.32 µg/mL).
As to `[2H]C([2H])([2H])N(C(=O)c1cccc2c1N1/C(=N/C(=O)c3cccc(c3)C(=O)NCCCC[C@H]1C)N2)C([2H])([2H])[2H]` [Example 64, (R,E)-11-methyl-N,N-bis(methyl-d3)-3,5-dioxo-1^2,1^3-dihydro-1^1H-2,6-diaza-1(2,1)-benzo[d]imidazola-4(1,3)-benzenacycloundecaphane-1^7-carboxamide], in data set [1] (setting [3]), the IC50 worked out at 3 nM. In data set [2] (setting [4]), this compound displayed a solubility of 44 µM (≈ 19.3 µg/mL).
In the case of `C[C@@H]1CCCCNC(=O)c2cccc(c2)C(=O)Nc2nc3cc(C(C)(C)O)cc(C(=O)N(C)C)c3n21` [Example 69, (R,E)-1^5-(2-hydroxypropan-2-yl)-N,N,11-trimethyl-3,5-dioxo-1^2,1^3-dihydro-1^1H-2,6-diaza-1(2,1)-benzo[d]imidazola-4(1,3)-benzenacycloundecaphane-1^7-carboxamide], the IC50 in data set [1] (setting [3]) was 2 nM. The same compound gave a solubility in data set [2] (setting [4]) of 93 µM (≈ 45.7 µg/mL).
In the case of `C[C@H]1CCCCNC(=O)c2cccc(c2)C(=O)/N=C2\Nc3cccc(N4CCN(C)C4=O)c3N21` [Example 74, (S,E)-11-methyl-1^7-(3-methyl-2-oxoimidazolidin-1-yl)-1^2,1^3-dihydro-1H-2,6-diaza-1(2,1)-benzo[d]imidazola-4(1,3)-benzenacycloundecaphane-3,5-dione], the IC50 in data set [1] (setting [3]) was 7 nM; in data set [1] (setting [5]), 11 nM. In addition, in data set [2] (setting [4]), the solubility stood at 90 µM (≈ 41.4 µg/mL).
Take `C[C@H]1CCCCNC(=O)c2cccc(c2)C(=O)Nc2nc3cccc(-c4ncn(C)n4)c3n21` [Example 84, (S)-11-methyl-1^7-(1-methyl-1H-1,2,4-triazol-3-yl)-1^1H-2,6-diaza-1(2,1)-benzo[d]imidazola-4(1,3)-benzenacycloundecaphane-3,5-dione]: the IC50 in data set [1] (setting [3]) was found to be 5 nM. This compound showed a solubility in data set [2] (setting [4]) of 15 µM (≈ 6.65 µg/mL).
Take `C[C@H]1CCCCNC(=O)c2cccc(c2)C(=O)Nc2nc3cccc(-c4ncnn4C)c3n21` [Example 86, (S,E)-11-methyl-1^7-(1-methyl-1H-1,2,4-triazol-5-yl)-1^1H-2,6-diaza-1(2,1)-benzo[d]imidazola-4(1,3)-benzenacycloundecaphane-3,5-dione]: the IC50 came to 4 nM in data set [1] (setting [3]) and 9 nM in data set [1] (setting [5]). The compound also returned a solubility in data set [2] (setting [4]) of 33 µM (≈ 14.6 µg/mL).
